Columns and labels:
cerebral MAO-A = assay: Inhibitory effect against cerebral MAO-A activity in mouse (oral administration); assay type: in vivo; conditions: 30 mg/kg oral, brain excised 45 minutes after administration, serotonin substrate
Description: (§1) A suspension (7mg protein/ml) of mitochondorial fraction obtained from cerebral tissue of rats in a conventional manner was used as a sample of enzyme, and serotonin was used as the substrate. of MAO-A. The MAO-A activity was estimated in terms of the amount of ammonia produced from serotonin by the enzymatic reaction.
(§2) Inhibitory effect against cerebral MAO-A and MAO-B activity in mouse.
(§3) A test compound (30 mg/kg) suspended in 0.5% aqueous sodium carboxymethylcellulose (CMC-Na) solution was administered orally to a group of 3 mice. The brain was excised 45 minutes after the administration. A control group was administered with the 0.5% aqueous CMC-Na solution alone.
(§4) The brain tissue was homogenized in 9 volumes of ice-cold distilled water and the homogenate was used as enzyme. MAO-A activity was estimated in the same manner as described in Experiment 1, whereas MAO-B activity was estimated in terms of the amount of benzaldehyde formed from benzylamine according to the method as described in "The Journal of Laboratory and Clinical Medicine, vol.

cerebral MAO-B = assay: Inhibitory effect against cerebral MAO-B activity in mouse (oral administration); assay type: in vivo; conditions: 30 mg/kg oral, brain excised 45 minutes after administration, benzylamine substrate
Description: as §2, §3, §4
Inhibitory rate of the test compound against the MAO-B activity are calculated according to the following equation. [formula] BA(T): the amount of benzaldehyde in the medicated group BA(C): the amount of benzaldehyde in the non-medicated control group

MAO-A = molecular target: T1, MAO-A (Rattus norvegicus, UniProt P21396); assay: Inhibitory effect against MAO-A activity of cerebral mitochondrial fraction from rat (in vitro); assay type: biochemical; conditions: 10^-7 M test compound, serotonin substrate, read-out: Inhibitory rate (%) against MAO-A activity
T1 construct: mitochondorial fraction obtained from cerebral tissue of rats; from tissue; host or cells: rat cerebral tissue, mitochondrial fraction
T1 sequence (P21396 1-526): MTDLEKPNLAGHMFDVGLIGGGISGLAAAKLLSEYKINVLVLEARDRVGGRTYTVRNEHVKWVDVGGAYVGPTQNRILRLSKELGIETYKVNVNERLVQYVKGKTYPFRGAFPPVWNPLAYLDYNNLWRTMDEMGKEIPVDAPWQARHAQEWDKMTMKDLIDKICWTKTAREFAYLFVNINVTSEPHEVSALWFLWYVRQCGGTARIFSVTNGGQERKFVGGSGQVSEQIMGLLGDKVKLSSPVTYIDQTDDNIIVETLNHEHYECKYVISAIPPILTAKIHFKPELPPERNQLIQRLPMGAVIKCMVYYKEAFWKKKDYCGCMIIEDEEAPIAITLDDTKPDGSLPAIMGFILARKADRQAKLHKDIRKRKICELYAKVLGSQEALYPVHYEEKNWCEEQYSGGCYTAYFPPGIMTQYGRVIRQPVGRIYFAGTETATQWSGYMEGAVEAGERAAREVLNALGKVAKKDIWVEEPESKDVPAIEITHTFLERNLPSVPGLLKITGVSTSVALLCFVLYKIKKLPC
Description: Inhibitory effect against MAO-A activity of cerebral mitochondorian fraction from rat (in vitro)
as §1
Inhibitory rate of the test compounds (10^-7 M) against the MAO-A activity was calculated according to the following equation. [formula] NH3 (T): the amount of NH3 in test tube (addtion of test compound) NH3 (C): the amount of NH3 in control tube (no addition of test compound)

mice = assay: Acute oral toxicity in mice; assay type: in vivo, mouse; conditions: 2g/kg orally, 2 week-observation period
Source text: The naphthyloxazolidone derivative (I)or a pharmaceutically acceptable salt thereof has excellent reversible and selective MAO-A inhibitory activity. Accordingly, the compound (I) or a pharmaceutically acceptable salt thereof is useful as a therapeutic or prophylactic agent for depressive conditions such as depression, senile depression, abulia, axiety, insomnia, anorexia and the like in warm-blood animals including human beings. […] Moreover, the compound (I) or a pharmaceutically acceptable salt thereof is low in toxicity and have high safety as a pharmaceuticals. For example, when 3-(6-cyanoethoxy-2-naphthyl)-5-methoxymethyl-2-oxazolidone was administered orally to mice at a dose of 2g/kg, no mice died during 2 week-observation period.

SMILES | Inhibitory rate (%) MAO-A (cerebral MAO-A) [%] | Inhibitory rate (%) MAO-B (cerebral MAO-B) [%] | inhibition at 0.1 µM (MAO-A) [%] | mortality (mice)
COCC1CN(c2ccc3cc(OCCCC#N)ccc3c2)C(=O)O1 (centres unmarked) [O(CH2)3 CN] | 99.8 ± 16.1 | -1.9 ± 4.8 | 95.5 | 
COCC1CN(c2ccc3cc(OCCCO)ccc3c2)C(=O)O1 (centres unmarked) [O(CH2)3 OH] | 57.1 ± 4.3 | 1.0 ± 0.8 | 91.7 | 
COCC1CN(c2ccc3cc(OC(C)C)ccc3c2)C(=O)O1 (centres unmarked) [OCH(CH3)2] | 86.8 ± 5.4 | 3.6 ± 5.3 | 98.8 | 
COCC1CN(c2ccc3cc(OC(C)=O)ccc3c2)C(=O)O1 (centres unmarked) [OCOCH3, 3-(6-acetyloxy-2-naphthyl)-5-methoxymethyl-2-oxazolidone] | 56.4 ± 7.4 | -3.1 ± 1.8 | 76.6 | 
COCC1CN(c2ccc3ccccc3c2)C(=O)O1 (centres unmarked) [H, 5-methoxymethyl-3-(2-naphthyl)-2-oxazolidone] |  |  | 78.4 | 
COCC1CN(c2ccc3cc(OCCC#N)ccc3c2)C(=O)O1 (centres unmarked) [O(CH2)2 CN, 3-(6-cyanoethoxy-2-naphthyl)-5-methoxymethyl-2-oxazolidone] | 109.2 ± 3.5 | -1.0 ± 2.3 | 98.1 | no mice died
COCC1CN(c2ccc3cc(OCC4CC4)ccc3c2)C(=O)O1 (centres unmarked) | 71.4 ± 4.3 | -4.5 ± 5.9 | 93.5 | 
C#CCN(C)Cc1ccccc1 [pargyline, reference compound] | 42.0 ± 2.4 | 98.3 ± 5.9 |  | 
C=CCOc1ccc2cc(N3CC(COC)OC3=O)ccc2c1 (centres unmarked) [OCH2 CHCH2] |  |  | 96.8 | 
